Read-outs that look alike come from different tables or passages of the source.
How the values were obtained:
LXRβ full length (FL) = molecular target: T1, LXRβ full length (FL) (Homo sapiens, UniProt P55055, INS174Q); experiment: LXR Gal4 reporter transient transfection assay, mammalian two-hybrid, FL-M2H Gal4β; type: cell-based; conditions: HEK293 cells; inverse agonist unless *
T1 construct: the full length (FL) proteins of LXRα (amino acids 1-447); NP005684; NP009052; expressed in transfected cells; host or cells: HEK293
T1 sequence (P55055 with tags, fused parts or gaps INS174Q): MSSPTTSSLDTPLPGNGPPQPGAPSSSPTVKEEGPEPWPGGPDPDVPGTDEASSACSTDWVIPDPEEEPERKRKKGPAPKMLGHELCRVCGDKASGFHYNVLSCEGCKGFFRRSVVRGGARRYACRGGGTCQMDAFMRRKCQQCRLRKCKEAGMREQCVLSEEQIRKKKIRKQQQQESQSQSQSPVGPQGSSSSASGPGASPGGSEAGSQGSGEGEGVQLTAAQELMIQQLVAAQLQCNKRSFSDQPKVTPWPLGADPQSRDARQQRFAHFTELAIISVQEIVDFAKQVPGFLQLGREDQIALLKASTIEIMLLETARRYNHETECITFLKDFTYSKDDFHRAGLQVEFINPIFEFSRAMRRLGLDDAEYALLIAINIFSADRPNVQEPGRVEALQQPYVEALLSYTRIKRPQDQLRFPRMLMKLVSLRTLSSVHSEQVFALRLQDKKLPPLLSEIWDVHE
Outline: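 Mammalian two-hybrid read-out: interaction of LXRα or LXRβ (full length or ligand-binding domain, NFkB activation-domain fusions) with GAL4-fused SRC1 or NCoR domains drives GAL4-responsive firefly luciferase in HEK293 cells, normalised by Renilla cotransfection. Compounds given 4 h after transfection, ≤0.2% vehicle, cells lysed after 16 h.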

[1] = Short term HFD mouse model: liver and plasma exposure after multiple oral dosing; type: in vivo, mice (C57BL/6J); conditions: C57BL/6J, HFD mice, 4 h after final dose; for Kp at 4 h: liver/plasma, read-out: liver/plasma ratio, 4 h
Description: Short Term HFD Mouse Model:
For this, C57BL/6J were purchased from Elevage Janvier (Rennes, France) at the age of 8 weeks. After an acclimation period of two weeks, animals were prefed on a high fat diet (HFD) (Ssniff Spezialdiäten GmbH, Germany, Surwit EF D12330 mod, Cat. No. E15771-34), with 60 kcal % from fat plus 1% (w/w) extra cholesterol (Sigma-Aldrich, St. Louis, Mo.) for 5 days. Animals were maintained on this diet during treatment with LXR modulators. The test compounds were formulated in 0.5% hydroxypropylmethylcellulose (HPMC) and administered in three doses (from 1.5 to 20 mg/kg each) by oral gavage according to the following schedule: on day one, animals received treatment in the morning and the evening (ca. 17:00), on day two animals received the final treatment in the morning after a 4 h fast and were sacrificed 4 h thereafter. Animal work was conducted according to the national guidelines for animal care in Germany.
Multiple oral dosing of compounds from the present invention in mice lead to a high liver exposure with a favourable liver to plasma ratio. […] These genes are related to hepatic de-novo lipogenesis. A suppression of these genes will reduce liver fat (liver triglycerides).

[2] = liver, three oral doses of 10 mg/kg each, read-out: liver exposure, 4 h
[3] = three oral doses of 10 mg/kg each
[4] = plasma, three oral doses of 10 mg/kg each, read-out: plasma exposure, 4 h
[5] = liver, three oral doses of 20 mg/kg each, read-out: liver exposure, 4 h
[6] = three oral doses of 20 mg/kg each
[7] = plasma, three oral doses of 20 mg/kg each, read-out: plasma exposure, 4 h
[8] = liver, three oral doses of 1.5 mg/kg each, read-out: liver exposure, 4 h
[9] = three oral doses of 1.5 mg/kg each
[10] = plasma, three oral doses of 1.5 mg/kg each, read-out: plasma exposure, 4 h

EC50 (LXRβ full length (FL))	concentration at 4 h [1, 2]	Kp at 4 h [1, 3]	concentration at 4 h [1, 4]	concentration at 4 h [1, 5]	Kp at 4 h [1, 6]	concentration at 4 h [1, 7]	Structure (SMILES)	further results
< 0.1 µM				37.5 µM	15.8	2.37 µM	Cc1ccc2ccccc2c1C(=O)N(Cc1ccc(-c2cccc(C(C)(C)C(=O)O)c2)cc1)Cc1ccc(C#N)o1 [27/38]	
< 0.1 µM				44.3 µM	32.5	1.36 µM	CCc1nc2ccccc2c(C(=O)N(Cc2ccc(-c3cccc(C(C)(C)C(=O)O)c3)cc2)Cc2ccc(C(F)(F)F)o2)c1C [27/43]	
< 0.1 µM	320 µM	367	0.871 µM				COc1ccc2c(c1C(=O)N(Cc1ccc(-c3cccc(C(C)(C)C(=O)O)c3)cc1)Cc1ccc(C(F)(F)F)o1)CCCC2 [27/45]	
< 0.1 µM				38.4 µM	36	1.07 µM	CC(C)(C(=O)O)c1cccc(-c2ccc(CN(Cc3ccc(C(F)(F)F)o3)C(=O)c3c4ccccc4cc4ccccc34)cc2)c1 [27/47]	
< 0.1 µM	75.3 µM	189	0.399 µM				COc1cc(-c2cccc(C(C)(C)C(=O)O)c2)ccc1CN(Cc1ccc(C(F)(F)F)o1)C(=O)c1c(C)ccc2ccccc12 [27/66]	
< 0.1 µM	37.9 µM	16.4	2.31 µM				Cc1ccc2ccccc2c1C(=O)N(Cc1ccc(-c2cc(F)cc(C3(C(=O)O)CC3)c2)cc1)Cc1ccc(C(F)(F)F)o1 [27/76]	
< 0.1 µM	18.4 µM	61.3	0.3 µM				Cc1ccc2ccccc2c1C(=O)N(Cc1ccc(C(F)(F)F)o1)Cc1ncc(-c2cccc(C(C)(C)C(=O)O)c2)cc1Cl [27/78]	
< 0.1 µM	36.5 µM	39.2	0.931 µM				Cc1nc2ccccc2c(C(=O)N(Cc2ccc(-c3cccc(C(C)(C)C(=O)O)c3)cc2)Cc2ccc(C(F)(F)F)o2)c1C [27/79]	
< 0.1 µM	43.2 µM	50.8	0.849 µM				COc1c(C)nc2ccccc2c1C(=O)N(Cc1ccc(-c2cccc(C(C)(C)C(=O)O)c2)cc1)Cc1ccc(C(F)(F)F)o1 [27/81]	
< 0.1 µM	155 µM	73.7	2.1 µM				Cc1nc2cccnc2c(C(=O)N(Cc2ccc(-c3cccc(C(C)(C)C(=O)O)c3)cc2)Cc2ccc(C(F)(F)F)o2)c1C [27/93]	
				18.2 µM	135	0.134 µM	Cc1ccc2ccccc2c1C(=O)N(Cc1ccc(-c2cccc(S(=O)(=O)CC(=O)O)c2)cc1)Cc1ccc(C(F)(F)F)o1 [Example 9]	
< 0.1 µM				8.93 µM	2.5	3.52 µM	Cc1ccc2ccccc2c1CN(Cc1ccc(-c2cccc(C(C)(C)C(=O)O)c2)cc1)Cc1ccc(C(F)(F)F)o1 [Example 24, 2-Methyl-2-(4′-((((2-methylnaphthalen-1-yl)methyl)((5-(trifluoromethyl)furan-2-yl)methyl)amino)methyl)-[1,1′-biphenyl]-3-yl)propanoic acid]	concentration at 4 h ([1]; liver, three oral doses of 5 mg/kg each, read-out: liver exposure, 4 h): 2.6 µM; Kp at 4 h ([1]; three oral doses of 5 mg/kg each): 2.9; concentration at 4 h ([1]; plasma, three oral doses of 5 mg/kg each, read-out: plasma exposure, 4 h): 0.893 µM

Further lines, the compound ahead of its results:

Structure (SMILES)	EC50 (LXRβ full length (FL))	concentration at 4 h [1, 2]	Kp at 4 h [1, 3]	concentration at 4 h [1, 4]	concentration at 4 h [1, 5]	Kp at 4 h [1, 6]	concentration at 4 h [1, 7]	further results
Cc1cc(C)c(C(=O)N(Cc2ccc(-c3cccc(C(C)(C)C(=O)O)c3)cc2)Cc2ccc(C(F)(F)F)o2)c(C)c1 [10/1]	< 0.1 µM							
Cc1ccc2ccccc2c1C(=O)N(Cc1ccc(-c2cccc([C@@H](C)C(=O)O)c2)cc1)Cc1ccc(C(F)(F)F)o1 [10/5]	< 0.1 µM	24.9 µM	7.9	3.16 µM				
Cc1ccc2ccccc2c1C(=O)N(Cc1ccc(-c2cc(F)c(CO)c(S(=O)(=O)CC(=O)O)c2)cc1)Cc1ccc(C(F)(F)F)o1 [22/8]					2.82 µM	55.7	0.051 µM	
Cc1ccc2ccccc2c1C(=O)N(Cc1ccc(C(F)(F)F)o1)Cc1ccc(-c2cccc(C(C)(C)C(=O)O)c2)cc1C#N [27/7]	< 0.1 µM				14.8 µM	52.5	0.281 µM	
Cc1ccc2ccccc2c1C(=O)N(Cc1ccc(-c2cccc(C(C)(O)C(=O)O)c2)cc1)Cc1ccc(C(F)(F)F)o1 (stereo not shown) [27/10]	< 0.1 µM	43.3 µM	30	1.44 µM				concentration at 4 h ([1]; liver, three oral doses of 3 mg/kg each, read-out: liver exposure, 4 h): 9.93 µM; Kp at 4 h ([1]; three oral doses of 3 mg/kg each): 211; concentration at 4 h ([1]; plasma, three oral doses of 3 mg/kg each, read-out: plasma exposure, 4 h): 0.047 µM
COc1ccc2c(c1CN(Cc1ccc(-c3cccc(C(C)(C)C(=O)O)c3)cc1)Cc1ccc(C(F)(F)F)o1)CCCC2 [27/17]	< 0.1 µM	6.8 µM	2.3	2.92 µM				
Cc1ccc2ccccc2c1C(=O)N(Cc1ccc(-c2cccc(C(C)(C)C(=O)O)c2)cc1)Cc1ccc(C(F)(F)F)o1 [27/26]	< 0.1 µM				44.6 µM	2.9	15.3 µM	concentration at 4 h [1, 8]: 6.73 µM; Kp at 4 h [1, 9]: 6.5; concentration at 4 h [1, 10]: 1.04 µM
CCOC(=O)c1ccc(CN(Cc2ccc(-c3cccc(C(C)(C)C(=O)O)c3)cc2)C(=O)c2c(C)ccc3ccccc23)o1 [27/28]	< 0.1 µM				13.8 µM	1790	0.008 µM	concentration at 4 h [1, 8]: 4.3 µM; Kp at 4 h [1, 9]: 600; concentration at 4 h [1, 10]: 0.007 µM
Cc1ccc2ccccc2c1C(=O)N(Cc1ccc(-c2cccc(C(C)(C)C(=O)O)c2)cc1)Cc1ccc(C(F)F)o1 [27/36]	< 0.1 µM	80.2 µM	26.6	3.02 µM				

Source: patent US20200131144A1, “AMINE OR (THIO)AMIDE CONTAINING LXR MODULATORS” (Phenex-FXR GmbH, priority 2017, published 2020)
